e = 2'-O-(2-methoxyethyl) (MOE); d = 2'-deoxy (DNA)

The nature of series [1]: Effect on HDL composition in huCETP transgenic LDL receptor knockout mice (Example 10). The series is classed as in vivo. Conditions: HDL fraction; for FC % (free cholesterol component of HDL) / PL % (phospholipid component of HDL) / Pro % (protein component of HDL) / TG % (triglyceride component of HDL) / CE % (cholesteryl ester component of HDL): CETP transgenic LDLr−/− mouse model; for CE % (cholesteryl ester component of HDL): calculated as (total cholesterol−free cholesterol)×1.67; for S/C Ratio: surface components (Pro, FC, PL) to core components (CE, TG). An excerpt: In human CETP transgenic mice, the bulk of the cholesterol in plasma is associated with HDL and, in this model, cholesteryl ester (CE) transferred from HDL to VLDL/LDL by CETP is rapidly cleared by the LDL receptor (LDLr) (Zhou, H. et al., Biochim Biophys. Acta. 1761: 14821488, 2006). The human CETP transgenic, LDLr knockout mouse model used in this example is an animal model for cardiovascular disease. In this model, clearance of LDL is delayed due to the absence of LDLr leading to the inability of the mice to clear CE via the LDL pathway (Plump, A. S. et al., Arterioscler. Thromb. Vasc. Biol. 19: 1105-1110, 1999). This human CETP transgenic, LDLr knockout mouse is helpful in assessing the effect of antisense inhibition of CETP on HDL composition as the model has a proatherogenic lipoprotein profile where most of the cholesterol is found in VLDL and LDL.
Male transgenic mice were maintained on a 12-hour light/dark cycle and were fed ad libitum the Western diet (TD88137; 42% cal from fat, 0.2% cholesterol; Harlan Laboratories, Indianapolis, Ind.). Animals were acclimated for at least 7 days in the research facility before initiation of the experiment and were maintained on this diet throughout the study period. Antisense oligonucleotides (ASOs) were prepared in buffered saline (PBS) and sterilized by filtering through a 0.2 micron filter. Oligonucleotides were dissolved in 0.9% PBS for injection.
Another group received subcutaneous injections of control oligonucleotide ISIS 141923 at a dose of 15 mg/kg/week for 6 weeks. One group of mice received subcutaneous injections of PBS for 6 weeks. The PBS-injected group served as the control group to which treatment groups were compared.
At the end of the treatment period, plasma samples were taken for further analysis.
The VLDL+IDL, LDL and HDL lipoprotein sub-fractions were separated by ultracentrifugation, based on their relative densities. Pooled plasma samples from all the groups of […] each was added to a 2 mL Beckman Quick-Seal centrifuge tube and the density adjusted to 1.019 g/mL with potassium bromide (KBr). The samples were then spun in a Beckman TL-100 ultracentrifuge for 4 hours at 100,000 rpm at 4 degrees Celsius. The top of the tube containing the VLDL+IDL sub-fraction was sliced off and collected.
The bottom fraction was collected in a new tube; the density was re-adjusted to 1.063 g/ml with KBr and re-spun at 100,000 rpm at 4 degrees Celsius for 5 hours to concentrate the LDL sub-fraction. The top of the tube containing the LDL sub-fraction was collected. Once again, the bottom fraction was placed in a new tube and the density was now adjusted to 1.21 g/ml with KBr to concentrate the HDL sub-fraction. The tubes were spun at 100,000 rpm at 4 degrees Celsius for 6 hours. The HDL sub-fraction was finally collected. All of the lipoprotein sub-fractions were dialyzed overnight in PBS to remove excess KBr.
The sub-fractions were then assayed for total cholesterol and triglyceride (TG) using enzymatic assays from Roche (Basel, Switzerland). Phospholipid (PL) and free cholesterol (FC) were measured using enzymatic assays from Wako Chemicals USA (Richmond, Va.). Protein (Pro) concentration was measured by Fisher Scientific's BCA assay (Pittsburgh, Pa.). Cholesteryl ester (CE) was calculated as (total cholesterol−free cholesterol)×1.67 (CE is cholesterol plus a fatty acid, the 1.67 adjustment takes into account the increase in mass the fatty acid will add (Rudel L L et al, JCI 100 (1); 74-83)). The S/C ratio is the ratio of the surface components (Pro, FC, and PL) to the core components (CE and TG).
Additionally, the S/C ratio is increased, indicating a shift to a smaller HDL particle, after antisense oligonucleotide inhibition of CETP. Accordingly, in this model, inhibiting the CETP-mediated transfer of TG to HDL, and CE from HDL, leads to the formation of smaller, denser, and CE rich HDL.

A short description of series [2]: Plasma cholesterol and triglyceride levels (Example 6). The series is classed as in vivo, mice. Conditions: 50 mg/kg s.c. twice per week. An excerpt: The normal chow-fed mice were divided into three treatment groups. The cholesterol-enriched chow-fed mice were divided into three treatment groups. […] One chow-fed group and one cholesterol-enriched chow-fed group received subcutaneous injections of saline twice weekly for 6 weeks. The saline-injected groups served as the control groups to which the corresponding oligonucleotide-treated groups were compared.
Plasma cholesterol were extracted at weeks 3 and 6 by the method of Bligh and Dyer (Bligh, E. G. and Dyer, W. J. Can. J. Biochem. Physiol. 37: 911-917, 1959) and measured on weeks 0, 3 and 6 with an Olympus clinical analyzer (Hitachi Olympus AU400e, Melville, N.Y.). HDL, LDL and VLDL cholesterol were individually measured by HPLC. Triglyceride levels were measured on weeks 0, 3 and 6 with the use of a commercially available triglyceride kit (DCL Triglyceride Reagent; Diagnostic Chemicals Ltd.). VLDL levels were measured on week 6. The results are presented in Tables 22-26 and are expressed in mg/dL.

Regarding “ISIS 141923: CCTTCCCTGAAGGTTCCTCC, 5-10-5 MOE gapmer, a control oligonucleotide which has no known murine target (sugars from the 5' end e5 d10 e5, backbone and methylation of C not given here) [reference compound]”, in series [1], the “FC % (free cholesterol component of HDL)” value was determined as 3.1%, the “PL % (phospholipid component of HDL)” value is recorded as 8.4%, the “Pro % (protein component of HDL)” value was found to be 24.8% and the “TG % (triglyceride component of HDL)” value was determined as 47.1%. For the same substance, in series [1], the “CE % (cholesteryl ester component of HDL)” value is 16.6% and the “S/C Ratio” value was determined as 0.57.

Consider “ISIS 349511: 5-10-5 MOE gapmer CCCGACCTCCTTGGAGACTT (sugars from the 5' end e5 d10 e5, backbone and methylation of C not given here)”, for which the HDL cholesterol levels in series [2] (Cholesterol chow, Week 0) was 51 mg/dL; in series [2] (Cholesterol chow, Week 3), 85 mg/dL; in series [2] (Cholesterol chow, Week 6), 136 mg/dL; in series [2] (Normal chow, Week 0) it was 51 mg/dL; in series [2] (Normal chow, Week 3), 56 mg/dL; in series [2] (Normal chow, Week 6) it was 98 mg/dL. Further, the LDL cholesterol levels in series [2] (Cholesterol chow, Week 0) is 179 mg/dL; in series [2] (Cholesterol chow, Week 3), 576 mg/dL; in series [2] (Cholesterol chow, Week 6) it was 558 mg/dL; in series [2] (Normal chow, Week 0), 176 mg/dL; in series [2] (Normal chow, Week 3), 148 mg/dL; in series [2] (Normal chow, Week 6) it was 178 mg/dL. The Total cholesterol levels came out at 252 mg/dL in series [2] (Cholesterol chow, Week 0); 714 mg/dL in series [2] (Cholesterol chow, Week 3); 809 mg/dL in series [2] (Cholesterol chow, Week 6); 254 mg/dL in series [2] (Normal chow, Week 0); 227 mg/dL in series [2] (Normal chow, Week 3); 327 mg/dL in series [2] (Normal chow, Week 6). In addition, the Triglyceride levels in series [2] (Cholesterol chow, Week 0) stood at 101 mg/dL; in series [2] (Cholesterol chow, Week 3) it was 94 mg/dL; in series [2] (Cholesterol chow, Week 6), 99 mg/dL; in series [2] (Normal chow, Week 0) it was 80 mg/dL; in series [2] (Normal chow, Week 3), 90 mg/dL; in series [2] (Normal chow, Week 6), 101 mg/dL. Further, the VLDL cholesterol levels turned out to be 115 mg/dL in series [2] (Cholesterol chow, Week 6) and 50 mg/dL in series [2] (Normal chow, Week 6).

“ISIS 349517: 5-10-5 MOE gapmer CAGCACTTTAATGCCAGTGG (sugars from the 5' end e5 d10 e5, backbone and methylation of C not given here)”: in series [1], the “FC % (free cholesterol component of HDL)” value turned out to be 2.1%, the “PL % (phospholipid component of HDL)” value stood at 15.6%, the “Pro % (protein component of HDL)” value is 31.3% and the “TG % (triglyceride component of HDL)” value was found to be 12.8%. In addition, in series [1], the “CE % (cholesteryl ester component of HDL)” value is listed as 38.1% and the “S/C Ratio” value is on record as 0.96. In series [2] (Cholesterol chow, Week 0), the HDL cholesterol levels is given as 49 mg/dL, the LDL cholesterol levels is listed as 134 mg/dL, the Total cholesterol levels is recorded as 201 mg/dL and the Triglyceride levels stood at 84 mg/dL. In series [2] (Cholesterol chow, Week 3), the HDL cholesterol levels turned out to be 78 mg/dL, the LDL cholesterol levels stood at 597 mg/dL, the Total cholesterol levels was 739 mg/dL and the Triglyceride levels was determined as 107 mg/dL. In series [2] (Cholesterol chow, Week 6), this substance gave an HDL cholesterol levels of 122 mg/dL, an LDL cholesterol levels of 486 mg/dL, a Total cholesterol levels of 695 mg/dL and a Triglyceride levels of 102 mg/dL. Further, the VLDL cholesterol levels in series [2] (Cholesterol chow, Week 6) was 88 mg/dL. Moreover, in series [2] (Normal chow, Week 0), the HDL cholesterol levels came out at 53 mg/dL, the LDL cholesterol levels is 162 mg/dL, the Total cholesterol levels amounted to 237 mg/dL and the Triglyceride levels was determined as 66 mg/dL. Also, in series [2] (Normal chow, Week 3), the HDL cholesterol levels came to 64 mg/dL, the LDL cholesterol levels was determined as 146 mg/dL, the Total cholesterol levels came to 238 mg/dL and the Triglyceride levels worked out at 97 mg/dL. In series [2] (Normal chow, Week 6), this substance had an HDL cholesterol levels of 100 mg/dL, an LDL cholesterol levels of 220 mg/dL, a Total cholesterol levels of 375 mg/dL and a Triglyceride levels of 91 mg/dL. In series [2] (Normal chow, Week 6), this substance yielded a VLDL cholesterol levels of 55 mg/dL.

These data come from patent publication US20130053430A1, “MODULATION OF CETP EXPRESSION” (Isis Pharmaceuticals, Inc., priority 2010, published 2013).
